Results published in ChEMBL document CHEMBL3046894, “Synthesis and Herbicidal Activity of Pyrimidinyl Salicylic and Thiosalicylic Acids” (J Pestic Sci, 1996).
The source made the active and inactive calls. No cut-off for these calls is given here.

Columns and labels:
Cyperus iria [1] = assay: Pre-emergence herbicidal activity against Cyperus iria assessed as growth inhibition at 25 g a.i/10 a; assay type: functional, organism-based
Gossypium hirsutum [2] = assay: Pre-emergence phytotoxicity against Gossypium hirsutum (cotton) assessed as mortality per 10 acre; assay type: organism-based; details: in vivo
Chenopodium album [3] = assay: Pre-emergence herbicidal activity against Chenopodium album assessed as growth inhibition at 25 g a.i/10 a; assay type: functional, organism-based
[4] = Pre-emergence phytotoxicity against Gossypium hirsutum (cotton) assessed as mortality at 6.3 g a.i/10 a; assay type: organism-based; details: in vivo, 6.3 g a.i/10 a, read-out: Activity
Persicaria nodosa [5] = assay: Post-emergence herbicidal activity against Persicaria nodosa assessed as growth inhibition at 25 g a.i/10 a applied 11 days after germination as foliar spray; assay type: functional, organism-based
Amaranthus retroflexus [6] = assay: Pre-emergence herbicidal activity against Amaranthus retroflexus assessed as growth inhibition at 25 g a.i/10 a; assay type: functional, organism-based
Abutilon theophrasti [7] = assay: Post-emergence herbicidal activity against Abutilon theophrasti (velvetleaf) assessed as mortality at 6.3 g a.i/10 a applied 11 days after germination as foliar spray; assay type: functional; details: 264 h
Zea mays [8] = assay: Pre-emergence phytotoxicity against Zea mays (maize) assessed as mortality at 6.3 g a.i/10 a; assay type: organism-based; details: in vivo, other
Digitaria sanguinalis [9] = assay: Pre-emergence herbicidal activity against Digitaria sanguinalis (hairy crabgrass) assessed as growth inhibition at 25 g a.i/10 a; assay type: functional, organism-based
Amaranthus retroflexus [10] = assay: Post-emergence herbicidal activity against Amaranthus retroflexus assessed as growth inhibition at 25 g a.i/10 a applied 11 days after germination as foliar spray; assay type: functional, organism-based
Chenopodium album [11] = assay: Post-emergence herbicidal activity against Chenopodium album assessed as growth inhibition at 25 g a.i/10 a applied 11 days after germination as foliar spray; assay type: functional, organism-based
Glycine max [12] = assay: Post-emergence phytotoxicity against Glycine max (soybean) assessed as mortality at 1.6 g a.i/10 a applied 11 days after germination as foliar spray; assay type: organism-based; details: in vivo, other, 264 h
Ipomoea lacunosa [13] = assay: Post-emergence herbicidal activity against Ipomoea lacunosa assessed as mortality per 10 acre; assay type: functional
Ipomoea lacunosa [14] = assay: Pre-emergence herbicidal activity against Ipomoea lacunosa assessed as mortality per 10 acre; assay type: functional
Persicaria nodosa [15] = assay: Pre-emergence herbicidal activity against Persicaria nodosa assessed as mortality per 10 acre; assay type: functional
Amaranthus retroflexus [16] = assay: Pre-emergence herbicidal activity against Amaranthus retroflexus assessed as mortality per 10 acre; assay type: functional
Glycine max [17] = assay: (§1) Pre-emergence phytotoxicity against Glycine max (soybean) assessed as mortality at 6.3 g a.i/10 a; assay type: organism-based; details: in vivo, other
Glycine max [18] = assay: (§2) Pre-emergence phytotoxicity against Glycine max (soybean) assessed as mortality at 1.6 g a.i/10 a; assay type: organism-based; details: in vivo, other
Echinochloa crus-galli [19] = assay: Post-emergence herbicidal activity against Echinochloa crus-galli (barnyard grass) assessed as growth inhibition at 25 g a.i/10 a applied 11 days after germination as foliar spray; assay type: functional, organism-based
Xanthium strumarium [20] = assay: Post-emergence herbicidal activity against Xanthium strumarium (cocklebur) assessed as mortality per 10 acre; assay type: functional
Ipomoea lacunosa [21] = assay: Post-emergence herbicidal activity against Ipomoea lacunosa assessed as mortality at 6.3 g a.i/10 a applied 11 days after germination as foliar spray; assay type: functional; details: 264 h
Zea mays [22] = assay: Pre-emergence phytotoxicity against Zea mays (maize) assessed as mortality at 1.6 g a.i/10 a; assay type: organism-based; details: in vivo, other
[23] = Post-emergence phytotoxicity against Gossypium hirsutum (cotton) assessed as mortality at 1.6 g a.i/10 a applied 11 days after germination as foliar spray; assay type: organism-based; details: in vivo, 1.6 g a.i/10 a
Amaranthus retroflexus [24] = assay: Post-emergence herbicidal activity against Amaranthus retroflexus assessed as mortality per 10 acre; assay type: functional
Echinochloa crus-galli [25] = assay: Post-emergence herbicidal activity against Echinochloa crus-galli (barnyard grass) assessed as mortality per 10 acre; assay type: functional
Echinochloa crus-galli [26] = assay: Pre-emergence herbicidal activity against Echinochloa crus-galli (barnyard grass) assessed as mortality per 10 acre; assay type: functional
Zea mays [27] = assay: (§3) Post-emergence phytotoxicity against Zea mays (maize) assessed as mortality at 1.6 g a.i/10 a applied 11 days after germination as foliar spray; assay type: organism-based; details: in vivo, other, 264 h
[28] = (§4) Post-emergence phytotoxicity against Gossypium hirsutum (cotton) assessed as mortality at 6.3 g a.i/10 a applied 11 days after germination as foliar spray; assay type: organism-based; details: in vivo, 6.3 g a.i/10 a
Cyperus iria [29] = assay: Post-emergence herbicidal activity against Cyperus iria assessed as growth inhibition at 25 g a.i/10 a applied 11 days after germination as foliar spray; assay type: functional, organism-based
Gossypium hirsutum [30] = assay: Pre-emergence phytotoxicity against Gossypium hirsutum (cotton) assessed as mortality at 1.6 g a.i/10 a; assay type: organism-based; details: in vivo, other
Xanthium strumarium [31] = assay: Pre-emergence herbicidal activity against Xanthium strumarium (cocklebur) assessed as mortality at 1.6 g a.i/10 a; assay type: functional
Xanthium strumarium [32] = assay: Pre-emergence herbicidal activity against Xanthium strumarium (cocklebur) assessed as mortality per 10 acre; assay type: functional
Ipomoea lacunosa [33] = assay: Pre-emergence herbicidal activity against Ipomoea lacunosa assessed as mortality at 6.3 g a.i/10 a; assay type: functional
Persicaria nodosa [34] = assay: Pre-emergence herbicidal activity against Persicaria nodosa assessed as growth inhibition at 25 g a.i/10 a; assay type: functional, organism-based
Ipomoea lacunosa [35] = assay: Pre-emergence herbicidal activity against Ipomoea lacunosa assessed as mortality at 1.6 g a.i/10 a; assay type: functional
Gossypium hirsutum [36] = assay: Post-emergence phytotoxicity against Gossypium hirsutum (cotton) assessed as mortality per 10 acre; assay type: organism-based; details: in vivo
Digitaria sanguinalis [37] = assay: Post-emergence herbicidal activity against Digitaria sanguinalis (hairy crabgrass) assessed as growth inhibition at 25 g a.i/10 a applied 11 days after germination as foliar spray; assay type: functional, organism-based
Echinochloa crus-galli [38] = assay: Pre-emergence herbicidal activity against Echinochloa crus-galli (barnyard grass) assessed as growth inhibition at 25 g a.i/10 a; assay type: functional, organism-based
Persicaria nodosa [39] = assay: Post-emergence herbicidal activity against Persicaria nodosa assessed as mortality per 10 acre; assay type: functional
Abutilon theophrasti [40] = assay: Pre-emergence herbicidal activity against Abutilon theophrasti (velvetleaf) assessed as mortality at 1.6 g a.i/10 a; assay type: functional
Glycine max [41] = assay: Post-emergence phytotoxicity against Glycine max (soybean) assessed as mortality at 6.3 g a.i/10 a applied 11 days after germination as foliar spray; assay type: organism-based; details: in vivo, other, 264 h
Echinochloa crus-galli [42] = assay: Post-emergence herbicidal activity against Echinochloa crus-galli (barnyard grass) assessed as mortality at 1.6 g a.i/10 a applied 11 days after germination as foliar spray; assay type: functional; details: 264 h
Echinochloa crus-galli [43] = assay: Pre-emergence herbicidal activity against Echinochloa crus-galli (barnyard grass) assessed as mortality at 6.3 g a.i/10 a; assay type: functional
Abutilon theophrasti [44] = assay: Pre-emergence herbicidal activity against Abutilon theophrasti (velvetleaf) assessed as mortality at 6.3 g a.i/10 a; assay type: functional
Zea mays [45] = assay: Post-emergence phytotoxicity against Zea mays (maize) assessed as mortality at 6.3 g a.i/10 a applied 11 days after germination as foliar spray; assay type: organism-based; details: in vivo, other, 264 h
[46] = as §3; assay type: organism-based; details: in vivo, 1.6 g a.i/10 a
Xanthium strumarium [47] = assay: Pre-emergence herbicidal activity against Xanthium strumarium (cocklebur) assessed as mortality at 6.3 g a.i/10 a; assay type: functional
[48] = as §1; assay type: organism-based; details: in vivo, 6.3 g a.i/10 a, read-out: Activity
[49] = as §2; assay type: organism-based; details: in vivo, 1.6 g a.i/10 a, read-out: Activity
Echinochloa crus-galli [50] = assay: Post-emergence herbicidal activity against Echinochloa crus-galli (barnyard grass) assessed as mortality at 6.3 g a.i/10 a applied 11 days after germination as foliar spray; assay type: functional; details: 264 h
Gossypium hirsutum [51] = assay: as §4; assay type: organism-based; details: in vivo, other, 264 h

## COc1cc(OC)nc(Sc2cccc(Cl)c2C(=O)O)n1 [PYRITHIOBAC]
Cyperus iria [1]
  growth inhibition (GI): Active
Gossypium hirsutum [2]
  ED20: 50 gAi
Chenopodium album [3]
  growth inhibition (GI): Active
[4]
  mortality: < 50%
Persicaria nodosa [5]
  growth inhibition (GI): Active
Amaranthus retroflexus [6]
  growth inhibition (GI): Active
Abutilon theophrasti [7]
  mortality at 63 g/ha: > 90%
Zea mays [8]
  Activity: Toxic
Digitaria sanguinalis [9]
  growth inhibition (GI): Active
Amaranthus retroflexus [10]
  growth inhibition (GI): Active
Chenopodium album [11]
  growth inhibition (GI): Active
Glycine max [12]
  Activity: Toxic
Ipomoea lacunosa [13]
  ED90: inactive
Ipomoea lacunosa [14]
  ED90: 25 gAi
Persicaria nodosa [15]
  ED90: inactive
Amaranthus retroflexus [16]
  ED90: 1.5 gAi
Glycine max [17]
  Activity: Non-toxic
Glycine max [18]
  Activity: Non-toxic
Echinochloa crus-galli [19]
  growth inhibition (GI): Active
Xanthium strumarium [20]
  ED90: Active
Ipomoea lacunosa [21]
  mortality at 63 g/ha: > 90%
Zea mays [22]
  Activity: Toxic
[23]
  mortality at 264 h: < 5%
Amaranthus retroflexus [24]
  ED90: 1.5 gAi
Echinochloa crus-galli [25]
  ED90: 25 gAi
Echinochloa crus-galli [26]
  ED90: 25 gAi
Zea mays [27]
  Activity: Toxic
[28]
  mortality at 264 h: < 5%
Cyperus iria [29]
  growth inhibition (GI): Active
Gossypium hirsutum [30]
  Activity: < 50%
Xanthium strumarium [31]
  Activity: <50%
Xanthium strumarium [32]
  ED90: 25 gAi
Ipomoea lacunosa [33]
  Activity: <50%
Persicaria nodosa [34]
  growth inhibition (GI): Active
Ipomoea lacunosa [35]
  Activity: <50%
Gossypium hirsutum [36]
  ED20: 50 gAi
Digitaria sanguinalis [37]
  growth inhibition (GI): Active
Echinochloa crus-galli [38]
  growth inhibition (GI): Active
Persicaria nodosa [39]
  ED90: 1.5 gAi

## COc1cc(OC)nc(Sc2cccc(C(F)(F)F)c2C(=O)O)n1
[4]
  mortality: < 50%
Zea mays [8]
  Activity: Toxic
Glycine max [12]
  Activity: Toxic
Abutilon theophrasti [40]
  Activity: <50%
Glycine max [41]
  Activity: Toxic
Glycine max [17]
  Activity: Toxic
Glycine max [18]
  Activity: Non-toxic
Zea mays [22]
  Activity: Non-toxic
[23]
  mortality at 264 h: < 5%
Echinochloa crus-galli [42]
  mortality at 16 g/ha: < 5%
Echinochloa crus-galli [43]
  Activity: >90%
Zea mays [27]
  Activity: Toxic
[28]
  mortality at 264 h: < 5%
Gossypium hirsutum [30]
  Activity: < 50%
Ipomoea lacunosa [33]
  Activity: <50%
Ipomoea lacunosa [35]
  Activity: <50%
Abutilon theophrasti [44]
  Activity: <50%
Zea mays [45]
  Activity: Toxic

## COc1cc(OC)nc(Sc2cccc(I)c2C(=O)O)n1
[4]
  mortality: < 50%
Abutilon theophrasti [7]
  mortality at 63 g/ha: > 90%
Zea mays [8]
  Activity: > 90%
Glycine max [12]
  Activity: Toxic
Glycine max [41]
  Activity: Toxic
Glycine max [17]
  Activity: Toxic
Glycine max [18]
  Activity: Non-toxic
Zea mays [22]
  Activity: Toxic
[23]
  mortality at 264 h: < 5%
[46]
  mortality at 264 h: > 90%
[28]
  mortality at 264 h: < 5%
Gossypium hirsutum [30]
  Activity: < 50%
Xanthium strumarium [31]
  Activity: <50%
Ipomoea lacunosa [35]
  Activity: <50%

## COc1cc(OC)nc(Sc2cccc(C(C)=O)c2C(=O)O)n1
[4]
  mortality: < 50%
Zea mays [8]
  Activity: Toxic
Xanthium strumarium [47]
  Activity: <50%
Glycine max [12]
  Activity: Non-toxic
Glycine max [41]
  Activity: Non-toxic
[48]
  mortality: < 50%
[49]
  mortality: < 50%
Echinochloa crus-galli [50]
  mortality at 63 g/ha: > 90%
Zea mays [22]
  Activity: Non-toxic
[23]
  mortality at 264 h: < 5%
Zea mays [27]
  Activity: Toxic
Gossypium hirsutum [51]
  Activity: Non-toxic
Gossypium hirsutum [30]
  Activity: < 50%
Xanthium strumarium [31]
  Activity: <50%
Ipomoea lacunosa [33]
  Activity: <50%
Ipomoea lacunosa [35]
  Activity: <50%
